Experimental data: patent publication US20150344466A1 (SUMITOMO CHEMICAL COMPANY, LIMITED, priority 2013, published 2015)

Legend:
Assay type in all cases: in vivo
Culex pipiens pallens [1] = assay: Larvicidal test on Culex pipiens pallens, eight days (Test Example 7); conditions: 192 h; last-instar larvae of Culex pipiens pallens; 3.5 ppm in water; eight days later; read-out: death rate
How it was run: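 Twenty last-instar larvae placed in 100 ml ion-exchanged water containing test drug at 3.5 ppm active ingredient. Mortality scored after eight days; death rate = dead/tested × 100.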

[2] = test system: Adoxophyes orana fasciata; assay: Spray test on Adoxophyes orana fasciata on apple seedling (Test Example 12); conditions: 168 h, first-instar larvae of Adoxophyes orana fasciata on apple seedling, 20 ml spray, seven days after spraying
Description: On the other hand, 20 ml of the test spray solution was each sprayed on an apple seedling (28 days after sowing, a tree height of about 15 cm) planted in a plastic cup. After the drug solution sprayed on the apple was air-dried, about 30 first-instar larvae of Adoxophyes orana fasciata were released. Seven days after spraying, the number of surviving Adoxophyes orana fasciata on the apple seedling was investigated, and the controlling value was calculated according to the following equation. Controlling value (%)={1−(Cb×Tai)/(Cai×Tb)}×100 In the equation, the symbols represent as follows. Cb: the number of insects in a non-treated section before treatment Cai: the number of insects in a non-treated section on observation Tb: the number of insects in a treated section before treatment Tai: the number of insects in a treated section on observation

Culex pipiens pallens [3] = assay: Larvicidal test on Culex pipiens pallens, one day (Test Example 6); conditions: 24 h; last-instar larvae of Culex pipiens pallens; 3.5 ppm in water; one day later; read-out: death rate
Description: Each of the formulations of Compounds of Present Invention (39), (63), (71), (72), (92), (93), (95), (106), (150), (171), (170), (181), (182), (183), (187), (188), (189), (190), (191), (192), (200), (201), (201), (234), (246), (290) and (299) obtained in Formulation Example 15 was diluted with water, so as to have a concentration of the active ingredient of 500 ppm, to prepare a test drug solution.
20 last-instar larvae of Culex pipiens pallens were released into a liquid to which 0.7 ml of the above test drug solution was added to 100 ml of ion-exchanged water (a concentration of the active ingredient of 3.5 ppm). One day later, the life and death of the Culex pipiens pallens was examined, and the death rate was calculated. The death rate was calculated by the following equation.
Death rate (%)=(Number of dead insects/Number of tested insects)×100

Plutella xylostella = assay: Foliar spray test on Plutella xylostella on cabbage (Test Example 10); conditions: 120 h, third instar larvae of Plutella xylostella on cabbage, 500 ppm spray 20 ml/cup, after five days, read-out: controlling value
How it was run: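 Cabbage at the third–fourth true-leaf stage sprayed with test solution at 20 ml/cup, dried, then infested with 10 third-instar larvae. Insects counted after five days; controlling value (%) calculated from treated and non-treated counts before treatment and at observation.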

Blattella germanica [4] = assay: Knockdown spray test on Blattella germanica, 2.0% w/v oil formulation (Test Example 1); conditions: topical, 0.25 h, active ingredient 2.0% w/v, 1.5 ml sprayed, within 15 minutes, read-out: knockdown rate of the test insects within 15 minutes
How it was run: (§1)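 Ten German cockroaches (5 males, 5 females) in a mesh-bottomed, butter-walled container were sprayed with 1.5 ml test solution from 60 cm at 0.42 kg/cm^2 inside a chamber.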

Culex pipiens pallens [5] = assay: Knockdown spray test on adult Culex pipiens pallens (Test Example 4); conditions: topical, 0.25 h, active ingredient 0.1% w/v, 0.5 ml sprayed, within 15 minutes, read-out: knockdown rate of the test insects within 15 minutes
How it was run: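 Knockdown counts were taken 2, 5 and 15 min after spraying and expressed as percent of the 10 adults tested. For the spray, 0.5 ml of solution was applied by spray gun (0.4 kg/cm^2) from 30 cm above a gauze-covered cup in a test chamber; the cup was taken out right after spraying.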

Musca domestica [6] = assay: Knockdown spray test on adult Musca domestica (Test Example 3); conditions: topical, 0.25 h, active ingredient 2.0% w/v, 0.5 ml sprayed, within 15 minutes, read-out: knockdown rate of the test insects within 15 minutes
How it was run: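 Ten adult house flies (5 male, 5 female) in a gauze-covered cup sprayed with 0.5 ml test solution from 30 cm at 0.9 kg/cm^2 inside a chamber, then removed. Knocked-down flies counted at 2, 5 and 15 min and expressed as % of insects tested.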

Aphis gossypii [7] = assay: Foliar spray test on Aphis gossypii on cucumber (Test Example 8); conditions: 144 h, 500 ppm spray 20 ml/cup, Sir days after spraying, read-out: controlling value
Description: On the other hand, cucumber was planted in a polyethylene cup and grown until the first true leaf was spread, and about 20 Aphis gossypii were allowed to parasitize the cucumber. One day after, the test spray solution was sprayed to the cucumber at a ratio of 20 ml/cup. Sir days after spraying, the number of Aphis gossypii was investigated, and the controlling value was calculated according to the following equation. Controlling value (%)={1−(Cb×Tai)/(Cai×Tb)}×100 In the equation, the symbols represent as follows. Cb: the number of insects in a non-treated section before treatment Cai: the number of insects in a non-treated section on observation Tb: the number of insects in a treated section before treatment Tai: the number of insects in a treated section on observation

Spodoptera litura = assay: Foliar spray test on Spodoptera litura on cabbage (Test Example 11); conditions: 96 h, fourth instar larvae of Spodoptera litura on cabbage, 500 ppm spray 20 ml/cup, after 4 days, read-out: controlling value
How it was run: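 Cabbage is grown in cups to the third–fourth true leaf and sprayed at 20 ml/cup. Once the spray has dried, 10 fourth-instar larvae are released per cup and survivors are counted after 4 days. Controlling value (%) is corrected using pre-treatment and observation counts in treated and untreated sections.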

Blattella germanica [8] = assay: Knockdown spray test on Blattella germanica, 0.1% w/v oil formulation (Test Example 2); conditions: topical, 0.25 h, active ingredient 0.1% w/v, 1.5 ml sprayed, within 15 minutes, read-out: knockdown rate of the test insects within 15 minutes
How it was run: as §1

Aphis gossypii [9] = assay: Soil treatment test on Aphis gossypii on cucumber (Test Example 9); conditions: 168 h, 5 ml treatment solution in contact with soil, seven days after putting insects, read-out: controlling value
Description: On the other hand, cucumber was planted in a polyethylene cup with a plurality of small holes on the bottom and grown until the first true leaf was spread. A cup in which cucumber was planted was put in a plastic cup with 5 ml of the test treatment solution, so that the soil in the cup was in contact with the treatment liquid. After five days, about 20Aphis gossypii were allowed to parasitize the cucumber, and seven days after putting insects, the number of Aphis gossypii was investigated, and the controlling value was calculated according to the following equation. Controlling value (%)={1−(Cb×Tai)/([…])}×100 In the equation, the symbols represent as follows. Cb: the number of insects in a non-treated section before treatment Cai: the number of insects in a non-treated section on observation Tb: the number of insects in a treated section before treatment Tai: the number of insects in a treated section on observation

Musca domestica [10] = assay: Filter paper/sucrose bait death rate test on Musca domestica (Test Example 5); conditions: female imagoes of Musca domestica, 0.7 ml on filter paper, after 24 hours
How it was run: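 Ten female imagoes were confined in a sealed cup over a filter paper treated with 0.7 ml of test solution and 30 mg sucrose bait. Mortality was scored at 24 h and expressed as percent of tested insects killed.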

| Structure (SMILES) | pest or weed control at 3.5 ppm (Culex pipiens pallens [1]) [%] | pest or weed control at 500 ppm [2] [%] | pest or weed control at 3.5 ppm (Culex pipiens pallens [3]) [%] | pest or weed control at 500 ppm (Plutella xylostella) [%] | pest or weed control at 2 % strength (Blattella germanica [4]) [%] | pest or weed control at 0.1 % strength (Culex pipiens pallens [5]) [%] | pest or weed control at 2 % strength (Musca domestica [6]) [%] | pest or weed control at 500 ppm (Aphis gossypii [7]) [%] | pest or weed control at 500 ppm (Spodoptera litura) [%] | pest or weed control at 0.1 % strength (Blattella germanica [8]) [%] | pest or weed control at 500 ppm (Aphis gossypii [9]) [%] | pest or weed control at 500 ppm (Musca domestica [10]) [%] |
| --- | --- | --- | --- | --- | --- | --- | --- | --- | --- | --- | --- | --- |
| O=C(NCC1CCS(=O)(=O)C1)c1cc(COCc2ccccc2)on1 (centres unmarked) [(39), N-(1,1-dioxotetrahydrothiophen-3-ylmethyl)-5-benzyloxymethylisoxazole-3-carboxamide] | ≥ 90 | 100 | ≥ 90 | ≥ 90 | – | – | – | – | – | – | – | – |
| O=C(NCC1CCOCC1)c1cc(COCc2cccc(C(F)(F)F)c2)on1 [(65)] | – | 100 | – | ≥ 90 | ≥ 80 | ≥ 80 | ≥ 80 | ≥ 90 | ≥ 80 | – | – | – |
| O=C(NCC1CCOCC1)c1cc(COCc2cccc(SC(F)(F)F)c2)on1 [(81), N-(tetrahydropyran-4-ylmethyl)-5-(3-trifluoromethylthiobenzyloxymethyl)isoxazole-3-carboxamide] | – | – | – | ≥ 90 | – | ≥ 80 | – | ≥ 90 | ≥ 80 | – | – | – |
| O=C(NCC1CCOCC1)c1cc(COCc2ccc(OC(F)(F)F)cc2)on1 [(94), N-(tetrahydropyran-4-ylmethyl)-5-(4-trifluoromethoxybenzyloxymethyl)isoxazole-3-carboxamide] | – | – | – | ≥ 90 | – | ≥ 80 | – | ≥ 90 | – | ≥ 80 | – | – |
| O=C(NCC1CCOC1)c1cc(COCc2ccc3c(c2)CCCC3)on1 (centres unmarked) [(119), N-(tetrahydrofuran-3-ylmethyl)-5-(5,6,7,8-tetrahydronaphthalen-2-ylmethoxymethyl)isoxazole-3-carboxamide] | ≥ 90 | – | – | ≥ 90 | ≥ 80 | ≥ 80 | ≥ 80 | ≥ 90 | – | – | – | – |
| O=C(NCC1CCOC1)c1cc(COCC2Oc3ccccc3O2)on1 (centres unmarked) [(122), N-(tetrahydrofuran-3-ylmethyl)-5-(1,3-benzodioxolan-2-ylmethoxymethyl)isoxazole-3-carboxamide] | – | 100 | – | – | – | ≥ 80 | – | – | – | ≥ 80 | – | – |
| CC(OCc1ccccc1)c1cc(C(=O)NCC2CCOC2)no1 (centres unmarked) [(129), N-(tetrahydrofuran-3-ylmethyl)-5-[1-(benzyloxy)ethyl]isoxazole-3-carboxamide] | – | – | – | – | – | – | – | ≥ 90 | – | – | ≥ 90 | – |
| O=C(NCC1CCOC1)c1cc(COCC2CCCC2)on1 (centres unmarked) [(131), N-(tetrahydrofuran-3-ylmethyl)-5-cyclopentylmethoxymethylisoxazole-3-carboxamide] | – | – | – | – | ≥ 80 | ≥ 80 | ≥ 80 | ≥ 90 | – | – | – | – |
| O=C(NCC1CCOC1)c1cc(CCCCCCO)on1 (centres unmarked) [(144), N-(tetrahydrofuran-3-ylmethyl)-5-(6-hydroxyhexyl)isoxazole-3-carboxamide] | – | – | – | – | – | – | – | ≥ 90 | – | – | – | – |
| O=C(NCC1CCOC1)c1cc(CCCCCCCOc2ccc3ccccc3n2)on1 (centres unmarked) [(150), N-(tetrahydrofuran-3-ylmethyl)-5-[7-(2-quinolyloxy)heptyl]isoxazole-3-carboxamide] | ≥ 90 | 100 | ≥ 90 | ≥ 90 | – | ≥ 80 | ≥ 80 | – | – | – | – | ≥ 90 |
| O=C(NCC1CCOC1)c1cc(C(F)c2ccccc2)on1 (centres unmarked) [(154), N-(tetrahydrofuran-3-ylmethyl)-5-(1-fluoro-1-phenylmethyl)isoxazole-3-carboxamide] | – | – | – | – | – | – | – | ≥ 90 | – | – | ≥ 90 | – |
| O=C(NCC1CCOC1)c1noc(COCc2ccccc2)c1CF (centres unmarked) [(170), N-(tetrahydrofuran-3-ylmethyl)-(5-benzyloxymethyl-4-fluoromethyl)isoxazole-3-carboxamide] | ≥ 90 | 100 | ≥ 90 | ≥ 90 | – | ≥ 80 | – | – | – | ≥ 80 | – | – |
| O=C(NCC1CCOC1)c1noc(COCc2ccccc2)c1C(F)F (centres unmarked) [(171), N-(tetrahydrofuran-3-ylmethyl)-(5-benzyloxymethyl-4-difluoromethyl)isoxazole-3-carboxamide] | ≥ 90 | 100 | ≥ 90 | ≥ 90 | – | ≥ 80 | – | – | ≥ 80 | – | – | – |
| O=C(NCC1CCOCC1)c1cc(COc2ccc(Cl)c(Cl)c2)on1 [(183)] | ≥ 90 | 100 | ≥ 90 | – | – | ≥ 80 | – | – | ≥ 80 | – | – | – |
| O=C(NCC1CCOC1)c1cc(CCCc2ccc3c(c2)OCO3)on1 (centres unmarked) [(234), N-(tetrahydrofuran-3-ylmethyl)-5-[3-(1,3-benzodioxolan-5-yl)propyl]isoxazole-3-carboxamide] | – | 100 | ≥ 90 | ≥ 90 | – | ≥ 80 | – | – | ≥ 80 | ≥ 80 | – | ≥ 90 |
